# Read-outs that look alike come from different tables or passages of the source.
# Tests used:
# Type in all cases: in vivo, human
# [1] = Phase 1 safety and tolerability (Study 1 and Study 2); settings: healthy subjects
# Source text: Study 1 was the first-in-human study that investigated the safety, tolerability, and PK of single-escalating doses of Compound 1, given orally, to healthy adult subjects. […] The data from this study were used for the selection of doses for Study 2.
# (§1) The 2-part multiple-dose study, Study 2, determined the safety and tolerability of repeated daily doses of Compound 1 and investigated the effects on biomarkers of relevance for the treatment of alcohol dependence.
# The safety of Compound 1 was evaluated in 2 Phase 1 studies in healthy adult volunteers (Study 1 and Study 2). In both studies, adverse events (AEs), clinical laboratory tests, vital signs (supine blood pressure and pulse rate), and electrocardiograms (ECGs) were evaluated. Overall, in Study 1, Compound 1 was well-tolerated.
# [2] = Phase 2 study in adults with classic CAH: safety; settings: patients with CAH, 5-fold range of doses
# Source text: Cohort A of the Phase 2 Study includes a 6-week, multiple-dose, dose escalation study of Compound 1 for the treatment of adults with classic CAH. After screening, eligible patients will be enrolled into a 6-week treatment period followed by a 4-week washout/safety follow-up period.
# This cohort will be conducted in approximately 9 patients, who will receive Compound 1 daily for up to 6 weeks. Compound 1 will be administered as an oral daily dose. Patients will undergo titration of Compound 1 through three escalating dosage strengths at 2-week intervals. Patients will have overnight PK/PD assessments performed at baseline, which include an pre-dose overnight assessment and a post-dose overnight assessment for PK/PD following administration of the first dose. At the end of each 2-week dosing period, patients will return for single overnight visits for steady-state PK/PD assessments. A follow-up outpatient visit will occur 30 days after their last dose. Upon completion of the initial cohort (Cohort A), the study will proceed to a multiple ascending dose (MAD) design with up to 3 sequential cohorts (Cohorts B, C, and D) to further evaluate the safety, PK, and PD of various SPROO1 dosing regimens and to identify an optimal dose regimen. […]
# • 1. […] To assess the efficacy of Compound 1 in subjects with classic CAH as measured by percent and absolute change in 17-OHP compared to baseline.
# [3] = Study 2 Part A: multiple-dose (14 days) pharmacokinetics; settings: for AUC(0-t): read-out: AUC0-24h; for Tmax: median; for concentration at 14 day: read-out: Cavg; for half-life: po, half-life calculated by accumulation ratio, read-out: Effective t1/2 (converted)
# Method: as §1
# PK were also evaluated in the multiple-dose, dose-escalation study, Study 2. In Part A of the study, subjects were divided into 3 cohorts and received 50, 150, or 200 mg Compound 1 or placebo for 14 consecutive days (at least 6 subjects received Compound 1 and 2 subjects received placebo in each cohort). […] All dosing occurred in the fed state. An assessment of diurnal cortisol levels, plus when under conditions of glucose clamp, were also carried out both prior to and during the dosing period.
# Consistent with the single-dose study (Study 1), concentrations appeared to decline in a bi-exponential manner, characterized by a rapid decrease within the first 24 hours. […] The Tmax appeared to be consistent across doses. Overall half-lives, weight normalized CL/F and V/F were consistent for 150 and 200 mg. However, the values for these latter 2 parameters were almost doubled at the 50-mg dose level. Variability (CV%) for apparent clearance and volume of distribution were large and not reduced with weight-normalization.
# Table 8 presents the results of the dose proportionality assessment for the AUC0-24 and Cmax over the tested dose range.
# [4] = human, plasma, oral, 50 mg, 50 mg daily, Day 14, geometric mean
# [5] = human, plasma, oral, 50 mg, Day 1, geometric mean
# [6] = human, plasma, oral, 150 mg, 150 mg daily, Day 14, geometric mean
# [7] = human, plasma, oral, 150 mg, Day 1, geometric mean
# [8] = human, plasma, oral, 200 mg, 200 mg daily, Day 14, geometric mean
# [9] = human, plasma, oral, 200 mg, Day 1, geometric mean
# [10] = human, plasma, oral, 50 mg daily, Day 14, geometric mean
# [11] = human, plasma, oral, 150 mg daily, Day 14, geometric mean
# [12] = human, plasma, oral, 200 mg daily, Day 14, geometric mean
structure (smiles),measurement,setting,value
"CCC(CC)c1cc(C)nc2c(-c3sc(N4CCOCC4)nc3Cl)c(C)nn12 [Compound 1, 4-(4-chloro-5-(2,5-dimethyl-7-(pentan-3-yl)pyrazolo[1,5-a]pyrimidin-3-yl)thiazol-2-yl)morpholine]",tolerability,"[1]; Study 1, single oral doses up to 800 mg",well-tolerated
same,tolerability,"[1]; Study 2, multiple doses up to 200 mg",generally well tolerated
same,tolerability,[2],generally well-tolerated
same,"RA (accumulation ratio, Day 14 AUC0-24/Day 1 AUC0-24)",[3]; 50 mg daily,2.80
same,CLaa/F,"[3]; 50 mg daily, Day 14, geometric mean",183 L/h
same,WT-norm Claa/F,"[3]; 50 mg daily, Day 14, weight normalized",48 mL/min/kg
same,"RA (accumulation ratio, Day 14 AUC0-24/Day 1 AUC0-24)",[3]; 150 mg daily,2.51
same,CLaa/F,"[3]; 150 mg daily, Day 14, geometric mean",101 L/h
same,WT-norm Claa/F,"[3]; 150 mg daily, Day 14, weight normalized",23.7 mL/min/kg
same,"RA (accumulation ratio, Day 14 AUC0-24/Day 1 AUC0-24)",[3]; 200 mg daily,3.65
same,CLaa/F,"[3]; 200 mg daily, Day 14, geometric mean",98 L/h
same,WT-norm Claa/F,"[3]; 200 mg daily, Day 14, weight normalized",25 mL/min/kg
same,Cmax,[3]; [4],50.3 ng/mL
same,AUC(0-t),[3]; [4],273 ng·h/mL
same,Vd/F at 14 days,"[3]; human, plasma, oral, 50 mg, 50 mg daily, Day 14, geometric mean, read-out: Vss/F",12900 L
same,Tmax,"[3]; human, plasma, oral, 50 mg, 50 mg daily, Day 14",5 h
same,Vd/F at 14 days,"[3]; human, plasma, oral, 50 mg, 50 mg daily, Day 14, weight normalized, read-out: WT-norm Vss/F",204 L/kg
same,Cmax,[3]; [5],22.7 ng/mL
same,AUC(0-t),[3]; [5],97.6 ng·h/mL
same,Tmax,"[3]; human, plasma, oral, 50 mg, Day 1",4.52 h
same,Cmax,[3]; [6],222 ng/mL
same,AUC(0-t),[3]; [6],1480 ng·h/mL
same,Vd/F at 14 days,"[3]; human, plasma, oral, 150 mg, 150 mg daily, Day 14, geometric mean, read-out: Vss/F",6170 L
same,Vd/F at 14 days,"[3]; human, plasma, oral, 150 mg, 150 mg daily, Day 14, geometric mean, read-out: Vz/F",17600 L
same,Tmax,"[3]; human, plasma, oral, 150 mg, 150 mg daily, Day 14",5 h
same,Vd/F at 14 days,"[3]; human, plasma, oral, 150 mg, 150 mg daily, Day 14, weight normalized, read-out: WT-norm Vss/F",86.5 L/kg
same,Cmax,[3]; [7],127 ng/mL
same,AUC(0-t),[3]; [7],590 ng·h/mL
same,Tmax,"[3]; human, plasma, oral, 150 mg, Day 1",5 h
same,Cmax,[3]; [8],314 ng/mL
same,AUC(0-t),[3]; [8],2040 ng·h/mL
same,Vd/F at 14 days,"[3]; human, plasma, oral, 200 mg, 200 mg daily, Day 14, geometric mean, read-out: Vss/F",5080 L
same,Vd/F at 14 days,"[3]; human, plasma, oral, 200 mg, 200 mg daily, Day 14, geometric mean, read-out: Vz/F",16300 L
same,Tmax,"[3]; human, plasma, oral, 200 mg, 200 mg daily, Day 14",5 h
same,Vd/F at 14 days,"[3]; human, plasma, oral, 200 mg, 200 mg daily, Day 14, weight normalized, read-out: WT-norm Vss/F",77.4 L/kg
same,Cmax,[3]; [9],143 ng/mL
same,AUC(0-t),[3]; [9],559 ng·h/mL
same,Tmax,"[3]; human, plasma, oral, 200 mg, Day 1",5 h
same,AUC(0-inf),[3]; [10],980 ng·h/mL
same,concentration at 14 day,[3]; [10],11.4 ng/mL
same,AUC(0-inf),[3]; [11],4680 ng·h/mL
same,concentration at 14 day,[3]; [11],61.7 ng/mL
same,AUC(0-inf),[3]; [12],5660 ng·h/mL
same,concentration at 14 day,[3]; [12],85 ng/mL
same,half-life at 2 weeks,"[3]; human, plasma, oral, following multiple daily dosing for 2 weeks",> 100 h
same,half-life,"[3]; human, plasma, 50 mg daily, Day 14",37.7 h
same,half-life,"[3]; human, plasma, 150 mg daily, Day 14",32.7 h
same,half-life,"[3]; human, plasma, 200 mg daily, Day 14",52 h

# Reference: patent publication US20200255436A1, “CORTICOTROPIN RELEASING FACTOR RECEPTOR ANTAGONISTS” (Spruce Biosciences, Inc., priority 2019, published 2020)
